Assay results: patent US9644213B2, “Method of enhancing plant drought tolerance by expression of NDR1” (BOARD OF TRUSTEES OF MICHIGAN STATE UNIVERSITY, priority 2012, dated 2017)

What was measured:
ndr1 stomata = assay: ABA-induced stomata closure in epidermal peels; assay type: cell-based, Arabidopsis thaliana; conditions: 10 μM ABA, 1 h, vs mock
Experimental: (§1) Stomata serve an important function in response to water stress, in large part by regulating transpiration rates. As an integral part of water stress, the regulation of stomatal aperture is a mechanism through which ABA-mediated signaling drives the conformational change in the shape of the guard cells, leading to a decrease in aperture size. To determine its putative role in linking ABA and stomata response, the NDR1 function was assayed. Epidermal peels of WT Col-0 and the ndr1 mutant were treated with 10 μM ABA, and after 1 hour, the stomata apertures were measured.

WT Col-0 stomata = assay: ABA-induced stomata closure in epidermal peels; assay type: cell-based, Arabidopsis thaliana; conditions: WT Col-0 epidermal peels; 10 μM ABA; 1 h; vs mock
Experimental: as §1

[1] = system: Arabidopsis thaliana Col-0 seeds; assay: Seed germination assay on ABA medium; assay type: in vivo
Experimental: (§2) Arabidopsis thaliana Col-0 and ndr1-1 seeds were surface sterilized with 50% bleach and 0.1% Triton X-100 for 20 min, with shaking, and rinsed five times with sterile distilled water under horizontal laminar flow hood. […] Plates were stratified at 4° C. for 4 days, in the dark, before being transferred to a growth chamber at 20° C., with a 12 h/12 h light/dark cycle and a light intensity of 120 μmol photons m^−2 s^−1.
(§3) During seed germination and dormancy assays, the radicle emergence was scored as germination and obvious cotyledons formation with green color was recorded as green cotyledons, respectively. The experiment was repeated five times, independently.

[2] = system: Arabidopsis thaliana ndr1-1 seeds; assay: Seed germination assay on ABA medium; assay type: in vivo; conditions: ndr1 mutant
Experimental: as §2, §3

Question: What does the source list for `CC1=CC(=O)CC(C)(C)[C@@]1(O)/C=C/C(C)=C\C(=O)O` [ABA, abscisic acid]?
Answer: stomata aperture (ndr1 stomata): did not show a change in aperture; stomata aperture (WT Col-0 stomata): significant reduction in aperture; germination rate (radicle emergence) ([1]; 0.5 μM ABA): 65%; germination rate (radicle emergence) ([1]; 1.0 μM ABA): 36%; germination rate (radicle emergence) ([2]; 0.5 μM ABA): 90%; germination rate (radicle emergence) ([2]; 1.0 μM ABA): 65%
